Measured values as given in publication PMC7673765 (Science Advances, 2020).
Entries after “also recorded” stand apart in the source; their conditions may differ.

Key:
HSP70 = experiment: Western blots of HSP70 in BC cell lines; format: cell-based, human; details: increasing concentrations of HSP90 inhibitor, 72 hours
ERα = experiment: Western blots of ERα in BC cell lines; format: cell-based, human
LMTK3 = experiment: Western blots of LMTK3 in BC cell lines; format: cell-based, human; details: for endogenous LMTK3 protein levels (Western blot): increasing concentrations of HSP90 inhibitor, 72 hours
[1] = tested on: NCI-60 panel of tumor cell lines; experiment: NCI-60 one-dose screening; format: cell-based; details: Homo sapiens, 24 h, read-out: inhibition of all cancer cell lines
CDC37 = experiment: Western blots of chaperones in BC cell lines; format: cell-based, human; details: increasing concentrations of C28, 48 hours
IRAK4 = molecular target: T1, IRAK4 (Homo sapiens, UniProt Q9NWZ3); experiment: Western blots of kinases in BC cell lines; details: 10 μM C28, different time points
T1 sequence (Q9NWZ3 1-460): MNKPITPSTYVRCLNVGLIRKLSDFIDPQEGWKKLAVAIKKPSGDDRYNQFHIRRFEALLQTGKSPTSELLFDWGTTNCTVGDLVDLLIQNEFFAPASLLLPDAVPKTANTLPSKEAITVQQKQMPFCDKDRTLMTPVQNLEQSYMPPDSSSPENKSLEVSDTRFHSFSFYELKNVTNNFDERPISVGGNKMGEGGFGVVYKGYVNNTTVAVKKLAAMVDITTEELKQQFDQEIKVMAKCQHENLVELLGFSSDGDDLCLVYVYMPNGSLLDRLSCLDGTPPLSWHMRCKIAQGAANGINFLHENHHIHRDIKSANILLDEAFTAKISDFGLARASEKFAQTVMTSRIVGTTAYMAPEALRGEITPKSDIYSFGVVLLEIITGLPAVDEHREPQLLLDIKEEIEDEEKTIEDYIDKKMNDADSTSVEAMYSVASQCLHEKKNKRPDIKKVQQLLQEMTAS

[2] = tested on: BC cell lines (MCF7, T47D, MDA-MB-231); experiment: Cell death and apoptosis; format: cell-based, human; details: increasing concentrations of C28, 72 hours
NCI-60 cell lines = experiment: NCI-60 five-dose evaluation; format: cell-based, human; details: five doses
HIPK2 = HIPK2 (Homo sapiens, UniProt Q9H2X6); experiment: Western blots of kinases in BC cell lines; details: 10 μM C28, different time points
MCF12A = experiment: Cell death and apoptosis; format: cell-based, human; details: even at high concentrations of C28 and longer time points
MMTV-Neu mammary tumors = experiment: MMTV-Neu transgenic mammary tumor model; format: in vivo, mice
BC cells = experiment: Cell viability assay; format: cell-based; details: Homo sapiens, 72 h, read-out: IC50 values, growth of BC cells
HSP90 = experiment: Western blots of chaperones in BC cell lines; format: cell-based, human; details: increasing concentrations of C28, 48 hours
MDA-MB-231 xenografts = experiment: MDA-MB-231 xenograft mouse model; format: in vivo, NSG mice; details: C28 10 mg/kg oral daily; after 23 days
human HSP90α = human HSP90α (Homo sapiens, UniProt P07900); experiment: Isothermal titration calorimetry; format: binding; details: 0.2 mM C28 injected into 20 μM human HSP90α
[3] = Histopathologic analysis of tumor sections and organs, MMTV-Neu mice; format: in vivo; details: C28 10 mg/kg oral daily
Pharmacokinetics in mice = format: in vivo; details: male, BALB/c (nude), mouse, plasma
[4] = molecular target: T2, human CDC37 (cell division cycle 37), recombinant (human, UniProt Q16543 1-378); experiment: MST
T2 sequence (looked up): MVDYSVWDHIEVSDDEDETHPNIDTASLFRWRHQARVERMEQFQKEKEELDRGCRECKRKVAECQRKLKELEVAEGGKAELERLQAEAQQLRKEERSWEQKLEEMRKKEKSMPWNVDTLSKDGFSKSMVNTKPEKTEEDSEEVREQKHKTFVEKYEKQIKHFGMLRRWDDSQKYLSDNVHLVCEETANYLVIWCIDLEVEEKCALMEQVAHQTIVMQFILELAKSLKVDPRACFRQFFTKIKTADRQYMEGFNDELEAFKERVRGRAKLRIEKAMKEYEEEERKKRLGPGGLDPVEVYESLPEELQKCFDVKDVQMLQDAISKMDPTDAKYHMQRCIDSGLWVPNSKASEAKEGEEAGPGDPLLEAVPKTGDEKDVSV

Chain of HIPK2 (Q9H2X6 whole entry): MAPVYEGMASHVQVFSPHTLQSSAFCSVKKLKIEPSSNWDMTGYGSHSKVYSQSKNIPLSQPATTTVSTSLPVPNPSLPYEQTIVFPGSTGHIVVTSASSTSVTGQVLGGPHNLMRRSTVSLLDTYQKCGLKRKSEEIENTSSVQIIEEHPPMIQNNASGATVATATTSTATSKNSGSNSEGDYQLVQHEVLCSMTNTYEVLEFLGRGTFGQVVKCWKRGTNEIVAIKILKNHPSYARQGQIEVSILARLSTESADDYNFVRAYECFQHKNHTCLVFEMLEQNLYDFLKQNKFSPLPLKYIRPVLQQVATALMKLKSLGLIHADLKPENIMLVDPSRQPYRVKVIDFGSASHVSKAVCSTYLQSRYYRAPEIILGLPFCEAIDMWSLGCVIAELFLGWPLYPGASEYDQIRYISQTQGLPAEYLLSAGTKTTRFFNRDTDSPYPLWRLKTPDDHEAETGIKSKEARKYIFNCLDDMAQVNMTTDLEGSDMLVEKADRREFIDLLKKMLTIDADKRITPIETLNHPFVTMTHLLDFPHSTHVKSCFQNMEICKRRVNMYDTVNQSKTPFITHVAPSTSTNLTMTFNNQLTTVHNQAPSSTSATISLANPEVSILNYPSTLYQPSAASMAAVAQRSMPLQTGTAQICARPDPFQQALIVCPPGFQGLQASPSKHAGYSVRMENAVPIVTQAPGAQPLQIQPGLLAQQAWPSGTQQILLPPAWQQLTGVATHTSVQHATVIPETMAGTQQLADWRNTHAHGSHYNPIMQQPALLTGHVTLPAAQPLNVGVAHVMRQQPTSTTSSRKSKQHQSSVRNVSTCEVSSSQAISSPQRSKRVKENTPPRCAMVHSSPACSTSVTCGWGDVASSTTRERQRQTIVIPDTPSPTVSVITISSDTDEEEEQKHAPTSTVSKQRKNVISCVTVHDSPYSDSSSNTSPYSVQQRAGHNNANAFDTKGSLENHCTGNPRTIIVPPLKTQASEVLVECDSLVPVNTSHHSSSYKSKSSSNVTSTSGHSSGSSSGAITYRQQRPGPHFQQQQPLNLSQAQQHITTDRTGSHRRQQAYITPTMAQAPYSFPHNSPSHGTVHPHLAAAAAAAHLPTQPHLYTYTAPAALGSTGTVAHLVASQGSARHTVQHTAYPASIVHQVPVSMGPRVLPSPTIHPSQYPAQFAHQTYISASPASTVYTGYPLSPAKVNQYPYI

In the case of CCNC(=O)c1noc(-c2cc(C(C)C)c(O)cc2O)c1-c1ccc(CN2CCOCC2)cc1 [NVP-AUY922], the “HSP70 levels (Western blot)” value (HSP70) is reported as “induction of HSP70”, the “ERα levels (Western blot)” value (ERα; BC cell lines, HSP90 inhibitor, 72 hours) is reported as “down-regulation of ERα” and the “endogenous LMTK3 protein levels (Western blot)” value (LMTK3) is reported as “reduction of endogenous LMTK3 protein levels”.

With COC1=C2C[C@@H](C)C[C@H](OC)[C@H](O)[C@@H](C)/C=C(\C)[C@H](OC(N)=O)[C@@H](OC)/C=C\C=C(/C)C(=O)NC(=CC1=O)C2=O [geldanamycin] the “HSP70 levels (Western blot)” value (HSP70) was “induction of HSP70” and the “endogenous LMTK3 protein levels (Western blot)” value (LMTK3) was “reduction of endogenous LMTK3 protein levels”.

In the case of FC(F)(F)Oc1cccc(-c2cnc3ccc(-c4ccncc4)nn23)c1 [C28, 6-(pyridin-4-yl)-3-(3-(trifluoromethoxy)phenyl)imidazo[1,2-b]pyridazine], the inhibition at 10 µM [1] is reported as greater than 50%, the “protein levels of CDC37 (Western blot)” value (CDC37) is reported as “no effect” and the “IRAK4 protein levels (Western blot)” value (IRAK4) is reported as “degradation”. The “apoptosis of BC cell lines” value [2] was “triggered apoptosis”, the “sensitivity of renal cancer cells” value (NCI-60 cell lines) was “more sensitive” and the “protein levels of ERα (Western blot)” value (ERα; BC cell lines treated with C28) was “decreased protein levels of ERα”. For the same molecule, the “HIPK2 protein levels (Western blot)” value (HIPK2) was “degradation”, the “cell death of nontransformed MCF12A” value (MCF12A) was “low percentage of cell death” and the “Ki-67 IHC analysis of tumor sections” value (MMTV-Neu mammary tumors; C28 10 mg/kg) was “decreased proliferation”. The “LMTK3 expression in tumors (IHC staining)” value (MMTV-Neu mammary tumors; C28 10 mg/kg) was “reduction of LMTK3 expression”, the “tumor growth compared to the vehicle-treated group” value (MMTV-Neu mammary tumors; C28 10 mg/kg oral daily) was “nearly completely abrogated tumor growth” and the IC50 (BC cells) was 6.5 to 8.64 µM. The “protein levels of HSP90 (Western blot)” value (HSP90) was “no effect”, the “tumor growth compared to the control group” value (MDA-MB-231 xenografts) was “significantly impeded growth” and the “LMTK3 protein levels (Western blot)” value (LMTK3; increasing concentrations of C28, different time points) was “time- and dose-dependent degradation of LMTK3”. For the same molecule, the “binding to HSP90α (ITC)” value (human HSP90α) was “no detectible heat of interaction; also recorded: does not bind to HSP90”, the “toxicity (histopathology of tumor, lung, stomach, heart, kidney, liver, spleen)” value [3] was “lack of toxicity” and the half-life (Pharmacokinetics in mice; ip, 10 mg/kg, T1/2, plasma) was roughly 59 min. The Cmax (Pharmacokinetics in mice; iv, 5 mg/kg) was 4.3 µM, the half-life (Pharmacokinetics in mice; iv, 5 mg/kg, half-life (T1/2)) was roughly 10 min and the Cmax (Pharmacokinetics in mice; po, 10 mg/kg) was 632 ng/mL. It also gave a half-life (Pharmacokinetics in mice; po, 10 mg/kg, T1/2, plasma) of roughly 62 min.

B1: LMTK3 catalytic domain (LMTK3cat; amino acids 134 to 444) (domain or fragment, UniProt Q96Q04 105-415, looked up)
chain: LAEVSLPMPAPQPSHSDMTTPLGLSRQHLSYLQEIGSGWFGKVILGEIFSDYTPAQVVVKELRASAGPLEQRKFISEAQPYRSLQHPNVLQCLGLCVETLPFLLIMEFCQLGDLKRYLRAQRPPEGLSPELPPRDLRTLQRMGLEIARGLAHLHSHNYVHSDLALRNCLLTSDLTVRIGDYGLAHSNYKEDYYLTPERLWIPLRWAAPELLGELHGTFMVVDQSRESNIWSLGVTLWELFEFGAQPYRHLSDEEVLAFVVRQQHVKLARPRLKLPYADYWYDILQSCWRPPAQRPSASDLQLQLTYLLSER
modifications: covalently labeled with a red NHS-647 fluorophore (NT647) for MST
With B1 the Kd [4] was 2.21 ± 1.17 µM.
